Laboratory results published in patent publication US8859544B2, “Indolizine derivatives, process for the preparation thereof and therapeutic use thereof” (Sanofi, priority 2010, dated 2014).
“And” between values parts separate entries of the source, which are not always exact repeats. Equal entries are not always repeated.

Columns and labels:
[1] = system: inflammatory angiogenesis in mice; test: Model of inflammatory angiogenesis in mice; type: in vivo; conditions: for % inhibition of the angiogenic parameter (dye content) / % inhibition of the inflammatory parameter (mass of the granuloma): mice, daily oral treatment
Protocol: The model is developed on OF1 female mice (Charles River Laboratories) weighing approximately 25 g, and by groups of 12. The animals are anaesthetized with sodium pentobarbital (60 mg/kg; Sanofi Nutrition Santé animale)) intraperitoneally. An air pocket is created on the back of the mouse by subcutaneous injection of 3 ml of air. […] Seven days later, the mice are again anaesthetized and placed on a hot plate at 40° C. One ml of carmine red (Aldrich Chemicals, 5% in 10% of gelatin) is injected into the tail vein. The animals are then placed at 4° C. for 2-3 hours. The skins are then taken and dried for 24 h in an oven at 56° C. The dry tissues are weighed and placed in 1.8 ml of digestion solution (2 mM dithiothreitol, 20 mM Na2HPO4, 1 mM EDTA, 12 U/ml papain) for 24 h. The dye is then dissolved in 0.2 ml of 5M NaOH. The skins are centrifuged at 2000 rpm for 10 min at ambient temperature. The supernatants are filtered through 0.2 μm cellulose acetate membranes. The filtrates are read in a spectrophotometer at 492 nm against a carmine red calibration range. Two parameters are studied: the dry weight of the granuloma and the amount of dye after digestion of the tissues. The results are expressed as mean values (±sem). The differences between the groups are tested with an ANOVA followed by a Dunnett's test, of which the reference group is the “solvent control” group.
The FGF-R antagonists are evaluated between 1 and 50 mg/kg using methylcellulose/tween (0.6% v/v) as vehicle or any other vehicle which allows the active ingredient to be solubilized. The molecules are administered daily, orally (one or two times a day) by gavage.

[2] = system: HUVEC cells stimulated with FGF-2; test: FGF-2-induced in vitro proliferation of HUVEC cells; type: cell-based, human; conditions: inhibition of proliferation as percentage of the control
Protocol: To do this, HUVEC human vein endothelial cells (promocell, C-12200) are seeded at a rate of 5000 cells per well of a 96-well plate (Biocoat collagen I cellware, Becton Dickinson 354650) in 100 μl of RPMI 1640 deprivation medium (Invitrogen, 31872-025) supplemented with 0.5% or 1% FCS, 2 mM glutamine, 1× sodium pyruvate (Invitrogen, 11360-039) and 1×NEAA (Invitrogen, 11140-035), overnight at 37° C. in the presence of 5% CO2. The following morning, the medium is suctioned-off and replaced with 50 μl of deprivation medium containing the antagonists at a 2× concentration, to which are added 50 μl of FGF-2 (R&D systems, 133-FB-025; Invitrogen, PHG0026) at 0.2 ng/ml (i.e. 2×). After 48 or 72 h, 100 μl of Cell Titer-GLOW Luminescent Cell Viability Assay (Promega, G7571) are added for 10 min in order to measure, by means of a luminometer, the amount of ATP present in the cells and which is in relation to the number of cells per well corresponding to the cell proliferation.
The antagonists of the present invention are considered to be active as long as they are capable of inhibiting FGF-2-induced proliferation of HUVEC cells at a dose less than or equal to 300 nM.

[3] = system: HUVEC cells stimulated with FGF-2; test: FGF-2-induced in vitro angiogenesis of HUVEC cells; type: cell-based, human; conditions: as a percentage of the control
Protocol: To do this, matrices composed of matrigel (growth factor reduced matrigel, Becton Dickinson 356230) and collagen (rat tail collagen type I, Becton Dickinson 354236) are deposited, at a rate of 160 μl, into each chamberslide well (Biocoat Cellware collagen, Type I, 8-well culturesides: Becton Dickinson 354630), or 60 μl per well of 96-well plates (Biocoat collagen I cellware, Becton Dickinson 354407). The matrix is prepared by mixing ⅓ of matrigel, 1 mg/ml final concentration of collagen, NaOH (0.1N) (0.026× the volume of collagen in μl) and 1×PBS, and the volume is then adjusted with water. The gels are kept at 37° C. for 1 hour so as to allow them to polymerize. Next, the human vein endothelial cells (HUVECs ref: C-12200-Promocell) were seeded at 15×10^3 or 6×10^3 cells/well in 400 or 120 μl (for the 8-well or 96-well plates respectively) of EBM medium (Clonetics C3121)+2% FBS+10 μg/ml hEGF. They were stimulated with 1 or 3 ng/ml of FGF-2 (R&D systems, 133-FB-025; Invitrogen, PHG0026) for 24 h at 37° C. in the presence of 5% CO2. After 24 hours, the length of the network of microtubules formed was measured using a computer-assisted image analysis system (Imagenia Biocom, Courtaboeuf, France) and the total length of the pseudotubules in each well was determined. The average total length of the microcapillary network was calculated in μm for each condition corresponding to the average of 6 replicates.
Stimulation with FGF2 makes it possible to induce the formation of new tubules. An FGF-R antagonist is considered to be active in this test as long as it is capable of partially inhibiting this angiogenesis at a dose less than or equal to 300 nM.

With `COc1c(C)c(C(=O)c2ccc3nc(C)[nH]c(=O)c3c2)n2ccccc12` [Compound No. 15, 6-[(1-Methoxy-2-methylindolizin-3-yl)carbonyl]-2-methylquinazolin-4(3H)-one] the “% inhibition of the angiogenic parameter (dye content)” value (shortened to “% inhibition … (dye content)”) ([1]; 30 mg/kg) was 21%, the “% inhibition of the inflammatory parameter (mass of the granuloma)” value (from here on “% inhibition … (mass of the granuloma)”) ([1]; 30 mg/kg) was 21% and the melting point was 290 °C and 287 °C.

Compound `CCOC(=O)COn1c(=O)[nH]c2ccc(C(=O)c3c(C)c(OC)c4ccccn34)cc2c1=O` [Compound No. 34, Ethyl({6-[(1-methoxy-2-methylindolizin-3-yl)carbonyl]-2,4-dioxo-1,4-dihydroquinazolin-3(2H)-yl}oxy)acetate] has a melting point of 230 °C.

In the case of `COc1c(C)c(C(=O)c2ccc3[nH]c(=O)n(CC(=O)N(C)C)c(=O)c3c2)n2ccccc12` [Compound No. 35, 2-{6-[(1-Methoxy-2-methylindolizin-3-yl)carbonyl]-2,4-dioxo-1,4-dihydroquinazolin-3(2H)-yl}-N,N′-dimethylacetamide], the “% inhibition … (dye content)” value ([1]; 30 mg/kg) is reported as 36%, the “% inhibition … (mass of the granuloma)” value ([1]; 30 mg/kg) is reported as 36% and the “dye content corresponding to the angiogenesis” value ([1]; 10 or 30 mg/kg, after one week of daily treatment) is reported as “significantly reduce”.

`COc1c(C)c(C(=O)c2ccc3[nH]c(=O)n(Cc4nc(C)no4)c(=O)c3c2)n2ccccc12` [Compound No. 36, 6-[(1-Methoxy-2-methylindolizin-3-yl)carbonyl]-3-[(3-methyl-1,2,4-oxadiazol-5-yl)methyl]quinazoline-2,4(1H,3H)-dione] showed a melting point of 176 °C.

With `CCCn1c(=O)[nH]c2ccc(C(=O)c3c(C)c(OCCOC)c4ccccn34)cc2c1=O` [Compound No. 48, 6-{[1(2-Methoxyethoxy)-2-methylindolizin-3-yl]carbonyl}-3-propylquinazoline-2,4(1H,3H)-dione] the melting point was 215 °C.

`COc1c(C)c(C(=O)c2ccc3[nH]c(=O)n(N)c(=O)c3c2)n2ccccc12` [Compound No. 51, 3-Amino-6-[(1-methoxy-2-methylindolizin-3yl)carbonyl]quinazoline-2,4(1H,3H)-dione] showed a melting point of 220 °C.

In the case of `COc1c(C)c(C(=O)c2ccc3c(c2)c(=O)c(C(=O)[O-])cn3C)n2ccccc12.[Na+]` [Compound No. 62, Sodium salt of 6-[(1-methoxy-2-methylindolizin-3-yl)carbonyl]-1-methyl-4-oxo-1,4-dihydroquinoline-3-carboxylic acid], the “% inhibition … (dye content)” value ([1]; 10 mg/kg) is reported as 43% and the “% inhibition … (mass of the granuloma)” value ([1]; 10 mg/kg) is reported as 38%.

With `COc1c(C)c(C(=O)c2ccc3c(c2)c(=O)n(CC(=O)N(C)C)c(=O)n3C)n2ccccc12` [Compound No. 68, 2-{6-[(1-Methoxy-2-methylindolizin-3-yl)carbonyl]-1-methyl-2,4-dioxo-1,4-dihydroquinazolin-3(2H)-yl}-N,N-dimethylacetamide] the melting point was 276 °C.

Work on `CNC(=O)c1c[nH]c2ccc(C(=O)c3c(C)c(OC)c4ccccn34)cc2c1=O` [Compound No. 96, 6-[(1-Methoxy-2-methylindolizin-3-yl)carbonyl]-N-methyl-4-oxo-1,4-dihydroquinoline-3-carboxamide] yielded an inhibition at 0.03 µM ([2]; Homo sapiens, 30 nM, read-out: Percentage inhibition of angiogenesis (%)) of 123%, an inhibition at 0.3 µM ([2]; Homo sapiens, 300 nM, read-out: Percentage inhibition of angiogenesis (%)) of 129% and an inhibition at 0.003 µM ([3]; Homo sapiens, 3 nM) of 123%. It also gave an inhibition at 0.03 µM ([3]; Homo sapiens, 30 nM) of 129% and a melting point of 324 °C.

For `CNC(=O)c1cn(C)c2ccc(C(=O)c3c(C)cc4ccccn34)cc2c1=O` [Compound No. 105, N-1-Dimethyl-6-[(2-methylindolizin-3-yl)carbonyl]-4-oxo-1,4-dihydroquinoline-3-carboxamide], the “Percentage inhibition of angiogenesis (%)” value (shortened to “Percentage inhibition … (%)”) ([2]; 30 nM) was 14%, the “Percentage inhibition … (%)” value ([2]; 300 nM) was 123% and the “Percentage inhibition … (%)” value ([3]; 3 nM) was 25%. For the same compound, the “Percentage inhibition … (%)” value ([3]; 30 nM) was 105%.
